Measured values from article PMC12126490, “The HP1 box of KAP1 organizes HP1α for silencing of endogenous retroviral elements in embryonic stem cells” (Nature Communications, 2025).

Experiments:
[1] = system: I165E mutant of HP1αCSD; assay: 1H,15N HSQC NMR titration of I165E HP1αCSD with KAP1Hbox; format: binding, human; conditions: 15N-labeled I165E HP1αCSD, 20 mM Tris pH 6.8, 150 mM NaCl, 2 mM DTT, 298 K
Experimental: (§1) Human full-length HP1α and HP1αCSD (aa 109–185 of HP1α) were cloned into a pGEX4T-1 expression vector and expressed in E. coli BL21 Rosetta (DE3) pLysS cells grown in Luria Broth or M9 minimal media supplemented with ^15NH4Cl (Sigma-Aldrich). Following induction with 0.5 mM isopropyl β-D-1-thiogalactopyranoside (IPTG) for 20 h at 16 °C, cells were harvested by centrifugation and lysed by sonication. GST-tag fusion proteins were purified on glutathione agarose 4B beads (Thermo Fisher Sci) in 50 mM Tris-HCl (pH 7.5) buffer, supplemented with 500 mM NaCl and 5 mM β-mercaptoethanol. The GST tag was cleaved with TEV (Tobacco Etch Virus) protease overnight at 4 °C. Proteins were further purified by size exclusion chromatography (SEC) and concentrated in Millipore concentrators. Mutants were generated by site-directed mutagenesis using the Stratagene QuikChange mutagenesis protocol and were purified as wild-type proteins.
(§2) NMR data were processed and analyzed with NMRPipe[54] and NMRDraw as described. Normalized chemical shift perturbations shown in Fig. 3b were calculated using the equation:2 Δδ=ΔδH^2+ΔδN/5^2 where Δδ is the change in chemical shift in parts per million (ppm).

[2] = system: L139E/L150E HP1αCSD; assay: 1H,15N HSQC NMR titration of L139E/L150E HP1αCSD with KAP1Hbox; format: binding, human; conditions: 15N-labeled L139E/L150E HP1αCSD, 20 mM Tris pH 6.8, 150 mM NaCl, 2 mM DTT, 298 K
Experimental: as §1, §2

[3] = system: W174A mutant of HP1αCSD; assay: 1H,15N HSQC NMR titration of W174A HP1αCSD with KAP1Hbox; format: binding, human; conditions: 15N-labeled W174A HP1αCSD, 20 mM Tris pH 6.8, 150 mM NaCl, 2 mM DTT, 298 K
Experimental: as §1, §2

[4] = system: 147 bp Widom 601 DNA (DNA147); assay: EMSA; format: binding; conditions: for DNA binding of protein or peptide itself: 0.25 pmol/lane DNA147, 25 mM Tris-HCl pH 7.5, 150 mM NaCl, peptides without HP1α
Experimental: as §1
The protein was expressed in E. coli BL21(DE3) RIL competent cells in Luria Broth, induced with 0.5 mM IPTG and grown for 20 h at 16 °C. The cells were harvested by centrifugation and lysed by sonication. […] The protein was eluted in 50 mM Tris-HCl (pH 7.5) buffer supplemented with 500 mM NaCl, 500 mM imidazole and 5 mM DTT. The protein was further purified by size exclusion chromatography using a HiLoad16/600 Superdex 75 column (Cytiva) and buffer containing 50 mM Tris-HCl (pH 7.5), 500 mM NaCl and 5 mM DTT. The eluted protein fractions were analyzed by SDS-PAGE. The fractions were pooled, concentrated and exchanged with buffer containing […] pH 7.5, 150 mM NaCl and 2.5 mM DTT. The His-SUMO tag was cleaved overnight at 4 °C with Ulp1 enzyme and the tag was removed using Ni-NTA beads. The purified KAP1Hbox’ was concentrated in Millipore concentrators.
The buffer containing 25 mM Tris-HCl pH 7.5, 150 mM NaCl and 2.5 mM DTT was used to make up the final reaction volume of 10 µL. The samples were incubated for 1 h on ice and then loaded on a 8% native PAGE gel and run for 2 h at 80 V in 0.5× Tris-borate-EDTA (TBE) on ice. The gels were stained with SYBR Gold (Thermo Fisher Sci) and visualized by Blue LED (UltraThin LED Illuminator-GelCompany).
Tryptophan fluorescence data are presented as average of three independent measurements ±SD. […] EMSA experiments in Fig. 4 and Supplementary Figs. 6 and 7 were performed at least twice.

[5] = system: FL HP1α; assay: mass photometry with KAP1Hbox (Fig. 5j); parameters: species or system human; conditions: 2:1 molar ratio HP1α:KAP1Hbox
Experimental: as §1
(§3) Mass photometry (MP) assays shown in Fig. 5c, j, were performed on a Refeyn Two^MP mass photometer (Refeyn Ltd, Oxford, UK) to determine oligomeric states of FL and L139E/L150E HP1α. Each sample was loaded into the sample wells of the silicon cassettes assembled onto MassGlass UC coverslips (Refeyn, Ltd.). Samples for measurements were prepared by rapid in-drop dilution and measurements were performed at room temperature in buffer (50 mM Tris pH 7.5, 150 mM NaCl, 5 mM DTT). […]

[6] = system: L139E/L150E FL HP1α; assay: mass photometry with KAP1Hbox (Fig. 5j); parameters: species or system human; conditions: 2:1 molar ratio HP1α:KAP1Hbox
Experimental: as §1, §3

[7] = system: HP1αCSD’; assay: NMR chemical shift perturbation of 15N-labeled HP1αCSD’; format: binding, human; conditions: 50 μM 15N-labeled HP1αCSD’ with 1 mM unlabeled HP1αCSD’ or 900 μM unlabeled HP1αCD; 1H,15N HSQC
Experimental: NMR experiments for amide chemical shift assignments were collected at 310 K on an Avance Neo Bruker 800 MHz spectrometer equipped with a TXO cryo-probe optimized for ^15N detection. The HP1αCSD’ construct (aa 112–176 of HP1α) and the CD of HP1α (aa 18–75 of HP1α, HP1αCD) were purified as described. Experiments were performed in buffer containing 20 mM HEPES (90% H2O/10% D2O), pH 7.2, 75 mM KCl, 1 mM TCEP, and 0.01% NaN3. Chemical shift assignments were performed on a 400 μM uniformly ^13C/^15N-labeled HP1αCSD’ sample using standard 2D ^1H,^15N HSQC, 3D HNCACB and 3D CBCA(CO)NH experiments[56]–[58]. Data were processed with NMRPipe[54] and analyzed in NMRFAM-SPARKY[59] (Sparky). […]
Fig. 10, ^1H,^15N HSQC spectra were recorded on 50 μM ^15N-labeled HP1αCSD’ samples with and without 1 mM unlabeled HP1αCSD’ or with and without 900 μM unlabeled HP1αCD. The resonance perturbation analysis was performed using the […][60],[61] as follows:3 Δδcombined=∣ΔδH∣+α∣ΔδN∣ The ∆δcombined is the sum of the absolute chemical shift change. ∆δH is the change in the ^1H chemical shift. ∆δN is the change in the ^15N chemical shift. α (0.105) is the scaling factor calculated by using the ratio between the backbone ^1H chemical shift range and ^15N chemical shift range from the ^1H,^15N HSQC spectrum.

[8] = system: endogenous KAP1 from HCT116 cells; assay: pull-down with Strep-tagged HP1α, Western blot; format: binding; conditions: Strep-tagged full-length HP1α, 3 biological replicates
Experimental: For all AP experiments, HCT116 cells were seeded in 10 cm plates (~4 million cells per dish) and transfected with Strep- and Flag-tagged plasmids one-day after seeding cells. Two days post-transfection, cells were collected in PBS and lysed with passive lysis buffer (PLB: 50 mM Tris-HCl pH 7.5, 150 mM NaCl, 1 mM DTT, 1.0% NP-40, 1.5 mM MgCl2, 5% v/v glycerol, and 1X complete, Mini EDTA-free, EASYpack Protease Inhibitor [Roche, Cat# 4693159001]) by resuspending cells in PLB, vortexing briefly, nutating for 15 min at 4 °C, and centrifuging the lysate (10,000 × g, 10 min, 4 °C). Strep-Tactin superflow resin (IBA Life Sciences, Cat# 2-1208-010), was equilibrated by centrifuging beads (2000 RPM, 2 min, 4 °C), removing storage buffer, and washing three times with PLB with nutation for 5 min at 4 °C. Beads were volumed back to their original volume, and 40 µL beads were used per AP and bound for 2 h. Beads were then washed with AP Wash Buffer (50 mM Tris-HCl pH 7.5, 250 mM NaCl, 1 mM DTT, 0.2% NP-40, 1.5 mM MgCl2, and 5% v/v glycerol), and eluted with Strep-tag Elution Buffer containing D-Desthiobiotin (IBA Life Sciences, Cat# 2-1000-025).
All western blots were run on 10-12% SDS-PAGE gels and transferred on nitrocellulose membranes (Bio-Rad, Cat# 1620115) using the Bio-Rad Trans-Blot Turbo Transfer System, blocked for 1 h in 5% Milk (or BSA) with Tris-buffered saline-Tween-20 (TBST), probed with primary antibody in 5% Milk (or BSA) with TBST. Blots were exposed using either Clarity Western ECL (Bio-Rad, Cat# 1705060) or utilizing the starbright secondary channel. KAP1 and CBX5/HP1a mutants for Western blot assays were generated using QuikChange II XL Site-Directed Mutagenesis kit (Agilent, Cat# 200522) per manufacturer’s instructions. PCR amplified DNAs were transformed into E. coli BME treated XL-10 Gold provided in the kit and positive clones validated by Sanger Sequencing. […]
Tryptophan fluorescence data are presented as average of three independent measurements ±SD. […]

[9] = system: I165E HP1αCSD; assay: NMR titration of 15N-labeled I165E HP1αCSD with unlabeled HP1αCSD; format: binding, human
Experimental: as §1, §2

[10] = biological target: T1, HP1αCSD (Homo sapiens, UniProt P45973); assay: 1H,15N HSQC NMR titration of 15N-labeled HP1αCSD with KAP1Hbox; format: binding; conditions: 0.1–0.2 mM 15N-labeled protein, 20 mM Tris pH 6.8, 150 mM NaCl, 2 mM DTT, 10% D2O, 298 K
T1 construct: HP1αCSD (aa 109–185 of HP1α); GST (N, cleaved yes); made in house; host or cells: E. coli BL21 Rosetta (DE3) pLysS
T1 sequence (P45973 109-185): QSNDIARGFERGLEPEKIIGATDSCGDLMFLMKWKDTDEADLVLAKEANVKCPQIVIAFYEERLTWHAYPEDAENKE
Source text: NMR data were processed and analyzed with NMRPipe[54] and NMRDraw as described[55].

CC(C)C[C@H](NC(=O)[C@H](CCCNC(=N)N)NC(=O)[C@H](CCC(=O)O)NC(=O)[C@H](CC(C)C)NC(=O)[C@H](CO)NC(=O)[C@@H](NC(=O)[C@H](CCCNC(=N)N)NC(=O)[C@@H]1CCCN1C(=O)[C@@H](NC(=O)[C@H](CCCCN)NC(=O)[C@@H](N)CCCNC(=N)N)C(C)C)C(C)C)C(=O)O [KAP1Hbox]
binding by CSPs in HSQC [1]: disrupted
binding by CSPs in HSQC [2]: does not disrupt the CSD-KAP1Hbox complex formation
binding by CSPs in HSQC [3]: no CSP were observed
DNA binding of protein or peptide itself ([4]; 2.5 mM DTT, 1 h on ice): did not appreciably bind DNA
effect of peptide on binding of HP1α to DNA147 ([4]; FL HP1α, tenfold molar excess of peptide, 25 mM Tris-HCl pH 7.5, 150 mM NaCl, 2.5 mM DTT, 1 h on ice, 8% native PAGE): augmented binding of HP1α to DNA
effect on oligomerization of WT FL HP1α [5]: further increased oligomerization of WT FL HP1α
KAP1Hbox-promoted oligomerization of L139E/L150E FL HP1α [6]: markedly decreased

CD domain: CD of HP1α (aa 18–75 of HP1α)
resonance perturbations in HP1αCSD’ [7]: does not induce such changes

FL HP1α: Human full-length HP1α
DNA binding of protein or peptide itself ([4]; 2.5 mM DTT, 1 h on ice): forms a complex with DNA147
pull-down of endogenous KAP1 [8]: immunoprecipitated

HP1αCSD: aa 109–185 of HP1α, chromoshadow domain
CSPs in I165E HP1αCSD [9]: led to CSPs
resonance perturbations in HP1αCSD’ [7]: resonance perturbations observed
shift of DNA band by HP1αCSD in presence or absence of KAP1Hbox ([4]; isolated HP1αCSD, with and without KAP1Hbox (1:10)): unable to shift the DNA band

I165E HP1α: I165E mutant of full-length HP1α (dimerization interface), Strep-tagged
pull-down of endogenous KAP1 [8]: not

V488E mutant of KAP1Hbox: V488E mutant of KAP1Hbox peptide (RKVPRESLERL)
binding by CSPs in HSQC [10]: no CSP were observed

W174A HP1α: W174A mutant of full-length HP1α, Strep-tagged
pull-down of endogenous KAP1 [8]: not
